Test results as given in patent US6869949B2, “Polysubstituted imidazopyridines as gastric secretion inhibitors” (Altana Pharma AG, priority 2000, dated 2005).

Tested on: acid secretion stimulated by pentagastrin of the perfused rat stomach
Experiment: Testing of the secretion-inhibiting action on the perfused rat stomach
Conditions: dose 3 μmol/kg i.d., anesthetized CD rats, perfused stomach in vivo
Protocol: The abdomen of anesthetized rats (CD rats, female, 200-250 g; 1.5 g/kg i.m. urethane) was opened after tracheotomy by means of a median upper abdominal incision and a PVC catheter was fixed transorally in the esophagus and a further catheter via the pylorus such that the ends of the tubing just projected into the gastric lumen. The catheter leading from the pylorus led outwards through a side opening in the right abdominal wall.
After thorough rinsing (about 50-100 ml), warm physiological NaCl solution at 37° C. was continuously passed through the stomach (0.5 ml/min, pH 6.8-6.9; Braun-Unita I). The pH (pH meter 632, glass electrode EA 147; φ=5 mm, Metrohm), and, by titration with a freshly prepared 0.01 N NaOH solution to pH 7 (Dosimat 665 Metrohm), the secreted HCl were determined in the effluent in each case collected at an interval of 15 minutes.
The gastric secretion was stimulated by continuous perfusion of 1 μg/kg (=1.65 ml/h) of i.v. pentagastrin (left femoral vein) about 30 min after the end of the operation (i.e. alter determination of 2 preliminary fractions). The substances to be tested were administered intraduodenally in 2,5 ml/kg of liquid volume 60 min after the start of the pentagastrin continuous infusion.
The body temperature of the animals was kept at a constant 37.8-38° C. by infrared irradiation and heat pads (automatic, stepless control by means of rectal temperature sensors).

SMILES	Inhibition of acid secretion (%)
Cc1cn2ccc3c(c2n1)O[C@H](c1ccccc1)[C@H](O)[C@@H]3O [Example 18, (7R,8R,9R)-7,8-Dihydroxy-2-methyl-9-phenyl-7H-8,9-dihydropyrano[2,3-c]imidazo[1,2-a]pyridine]	100%
COCCO[C@@H]1c2ccn3c(Br)c(C)nc3c2N[C@H](c2ccccc2)[C@H]1O [Example 13, (7R,8R,9R)-3-Bromo-8-hydroxy-7-(2-methoxyethoxy)-2-methyl-9-phenyl-7,8,9,10-tetrahydroimidazo[1,2-h][1,7]naphthyridine]	100%
COCCO[C@@H]1c2ccn3cc(C)nc3c2O[C@H](c2ccccc2)[C@@H]1O [Example 17, (7R,8R,9R)-8-Hydroxy-7-(2-methoxyethoxy)-2-methyl-9-phenyl-7H-8,9-dihydro-pyrano[2,3-c]imidazo[1,2-a]pyridine]	100%
COCCOCCO[C@@H]1c2ccn3c(C)c(C)nc3c2N[C@H](c2ccccc2)[C@H]1O [Example 8, (7R,8R,9R)-8-Hydroxy-7-[2-(2-methoxyethoxy)ethoxy]-2,3-dimethyl-9-phenyl-7,8,9,10-tetrahydroimidazo[1,2-h][1,7]naphthyridine]	100%
COCCO[C@H]1c2ccn3cc(C)nc3c2N[C@H](c2ccccc2)[C@H]1O [Example 12a, (7S,8R,9R)-8-hydroxy-2-methyl-7-(2-methoxyethoxy)-9-phenyl-7,8,9,10-tetrahydroimidazo[1,2-h][1,7]naphthyridine]	100%
COCCO[C@@H]1c2ccn3c(CO)c(C)nc3c2N[C@H](c2ccccc2)[C@H]1O [Example 22, (7R,8R,9R)-3-Hydroxymethyl-8-hydroxy-7-(2-methoxyethoxy)-2-methyl-9-phenyl-7,8,9,10-tetrahydroimidazo[1,2-h][1,7]naphthyridine]	100%
CO[C@H]1c2ccn3cc(C)nc3c2N[C@H](c2ccccc2)[C@H]1O [Example 21, (7S,8R,9R)-8-Hydroxy-7-methoxy-2-methyl-9-phenyl-7,8,9,10-tetrahydroimidazo[1,2-h][1,7]naphthyridine]	100%
COCCO[C@@H]1c2ccn3c(Cl)c(C)nc3c2O[C@H](c2ccccc2)[C@@H]1O [Example 16, (7R,8R,9R)-3-Chloro-8-hydroxy-7-(2-methoxyethoxy)-2-methyl-9-phenyl-7H-8,9-dihydro-pyrano[2,3-c]imidazo[1,2-a]pyridine]	100%
COCCOCCO[C@H]1c2ccn3c(C)c(C)nc3c2N[C@H](c2ccccc2)[C@H]1O [Example 9, (7S,8R,9R)-8-Hydroxy-7-[2-(2-methoxyethoxy)ethoxy]2,3-dimethyl-9-phenyl-7,8,9,10-tetrahydroimidazo[1,2-h][1,7]naphthyridine]	100%
CO[C@@H]1c2ccn3cc(C)nc3c2N[C@H](c2ccccc2)[C@H]1O [Example 20, (7R,8R,9R)-8-Hydroxy-7-methoxy-2-methyl-9-phenyl-7,8,9,10-tetrahydroimidazo[1,2-h][1,7]naphthyridine]	100%
COCCO[C@@H]1c2ccn3cc(C)nc3c2N[C@H](c2ccccc2)[C@H]1O [Example 12b, (7R,8R,9R)-8-hydroxy-2-methyl-7-(2-methoxyethoxy)-9-phenyl-7,8,9,10-tetrahydroimidazo[1,2-h][1,7]-naphthyridine]	100%
COCCO[C@@H]1c2ccn3c(Cl)c(C)nc3c2N[C@H](c2ccccc2)[C@H]1O [Example 14, (7R,8R,9R)-3-Chloro-8-hydroxy-7-(2-methoxyethoxy)-2-methyl-9-phenyl-7,8,9,10-tetrahydroimidazo[1,2-h][1,7]naphthyridine]	100%
Cc1cn2ccc3c(c2n1)N[C@H](c1ccccc1)[C@@H](O)[C@@H]3O [Example 11, (7R,8R,9R)-7,8-Dihydroxy-2-methyl-9-phenyl-7,8,9,10-tetrahydroimidazo[1,2-h][1,7]naphthyridine]	100%

Tested on: not given
Experiment: not given
Conditions: not given

SMILES	melting point
COCCO[C@@H]1c2ccn3c(-c4ccccc4)c(C)nc3c2N[C@H](c2ccccc2)[C@H]1O [Example 25, (7R,8R,9R)-3,9-Diphenyl-8-hydroxy-7-(2-methoxyethoxy)-2-methyl-7,8,9,10-tetrahydroimidazo[1,2-h][1,7]naphthyridine]	190 to 192 °C
COCCO[C@@H]1c2ccn3c(Br)c(C)nc3c2N[C@H](c2ccccc2)[C@H]1O [Example 13, (7R,8R,9R)-3-Bromo-8-hydroxy-7-(2-methoxyethoxy)-2-methyl-9-phenyl-7,8,9,10-tetrahydroimidazo[1,2-h][1,7]naphthyridine]	153 to 154 °C
COCc1nc2c3c(ccn2c1C)C(=O)[C@H](O)[C@@H](c1ccccc1)N3 [Example 26, (8R,9R)-8-Hydroxy-2-methoxymethyl-3-methyl-9-phenyl-7,8,9,10-tetrahydroimidazo[1,2-h][1,7]naphthyridin-7-one]	168 to 173 °C
COCCO[C@H]1c2ccn3c(C)c(COC)nc3c2N[C@H](c2ccccc2)[C@H]1O [Example 28a, (7S,8R,9R)-8-hydroxy-7-(2-methoxyethoxy)-2-methoxymethyl-3-methyl-9-phenyl-7,8,9,10-tetrahydroimidazo[1,2-h][1,7]naphthyridine]	63 to 65 °C
COCCO[C@@H]1c2ccn3c(CO)c(C)nc3c2N[C@H](c2ccccc2)[C@H]1O [Example 22, (7R,8R,9R)-3-Hydroxymethyl-8-hydroxy-7-(2-methoxyethoxy)-2-methyl-9-phenyl-7,8,9,10-tetrahydroimidazo[1,2-h][1,7]naphthyridine]	180 to 183 °C
Cc1cn2ccc3c(c2n1)N[C@H](c1ccccc1)[C@@H](O)[C@@H]3O [Example 11, (7R,8R,9R)-7,8-Dihydroxy-2-methyl-9-phenyl-7,8,9,10-tetrahydroimidazo[1,2-h][1,7]naphthyridine]	119 °C (dec.)

Further lines, results first:

melting point	SMILES
176 to 177 °C	Cc1nc2c3c(ccn2c1C)C(=O)CC(c1ccsc1)N3 (centres unmarked) [Example 3, 2,3-Dimethyl-9-(3-thienyl)-7,8,9,10-tetrahydroimidazo[1,2-h][1,7]naphthyridin-7-one]
102 to 104 °C	COCc1nc2c3c(ccn2c1C)[C@@H](O)[C@H](O)[C@@H](c1ccccc1)N3 [Example 27, (7R,8R,9R)-7,8-Dihydroxy-2-methoxymethyl-3-methyl-9-phenyl-7,8,9,10-tetrahydroimidazo[1,2-h][1,7]naphthyridine]
192 to 194 °C	Cc1nc2c3c(ccn2c1C)C(O)CC(c1ccsc1)N3 (centres unmarked) [Example 4, 7-Hydroxy-2,3-dimethyl-9-(3-thienyl)-7,8,9,10-tetrahydroimidazo[1,2-h][1,7]naphthyridine]
221 to 222 °C	Cc1nc2c3c(ccn2c1C)C(O)CC(c1ccoc1)N3 (centres unmarked) [Example 7, 9-(3-Furyl)-7-hydroxy-2,3-dimethyl-7,8,9,10-tetrahydroimidazo[1,2-h][1,7]naphthyridine]
222 to 225 °C	Cc1nc2c3c(ccn2c1C)C(=O)C(O)C(c1ccsc1)N3 (centres unmarked) [Example 1, 8-Hydroxy-2,3-dimethyl-9-(3-thienyl)-7,8,9,10-tetrahydroimidazo[1,2-h][1,7]naphthyridin-7-one]
134 to 138 °C	Cc1nc2c3c(ccn2c1C)C(O)C(O)C(c1ccsc1)N3 (centres unmarked) [Example 2, 7,8-Dihydroxy-2,3-dimethyl-9-(3-thienyl)-7,8,9,10-tetrahydroimidazo[1,2-h][1,7]naphthyridine]
123 to 126 °C	COCCO[C@@H]1c2ccn3c(Cl)c(C)nc3c2N[C@H](c2ccccc2)[C@H]1O [Example 14, (7R,8R,9R)-3-Chloro-8-hydroxy-7-(2-methoxyethoxy)-2-methyl-9-phenyl-7,8,9,10-tetrahydroimidazo[1,2-h][1,7]naphthyridine]
